Results: ChEMBL document CHEMBL1201862, “PubChem BioAssay data set” (2004)
Activity calls are given as the source filed them.

What was measured:
[1] = molecular target: Ras and Rab interactor 1/Tyrosine-protein kinase ABL1 (Homo sapiens, UniProt P00519+Q13671); format: functional;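 note: biochemical TR-FRET dose-response test measuring inhibition of binding between Rin1 and Abl proteins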
Paired box protein Pax-8 = Paired box protein Pax-8 (Homo sapiens, UniProt Q06710); test: inhibitors of PAX8-driven TPO luciferase reporter, dose response, RMG-I cells, cherry-pick (AID 687027); format: functional, cell-based;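 note: luciferase reporter driven by Pax8 target thyroperoxidase promoter measured by SteadyGlo luminescence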
Chain of Paired box protein Pax-8 (Q06710 whole entry): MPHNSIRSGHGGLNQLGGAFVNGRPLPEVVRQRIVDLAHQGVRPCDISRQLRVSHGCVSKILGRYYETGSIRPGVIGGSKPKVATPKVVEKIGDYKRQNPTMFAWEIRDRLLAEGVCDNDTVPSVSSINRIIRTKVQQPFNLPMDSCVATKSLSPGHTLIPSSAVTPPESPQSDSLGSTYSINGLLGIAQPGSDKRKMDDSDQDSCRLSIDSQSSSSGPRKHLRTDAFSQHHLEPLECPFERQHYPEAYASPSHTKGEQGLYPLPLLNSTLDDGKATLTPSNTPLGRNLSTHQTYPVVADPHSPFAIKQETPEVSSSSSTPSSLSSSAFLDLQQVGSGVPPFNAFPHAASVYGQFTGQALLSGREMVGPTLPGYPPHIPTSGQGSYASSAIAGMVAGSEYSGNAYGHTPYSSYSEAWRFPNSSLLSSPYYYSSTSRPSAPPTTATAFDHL

[2] = non-specific cell cytotoxicity, dose response, cytotoxicity control for PAX8 inhibitor project, plate reader, dry powder samples (AID 743021); format: functional, cell-based
[3] = Shn3 3'UTR reporter inhibitors, dose response, cell-based, Clone20 osteoblasts, firefly luciferase, cherry-picked (AID 624132); format: functional;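 note: firefly luciferase luminescence from reporter carrying the Shn3 3'UTR in osteoblasts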
[4] = HepG2 cell cytotoxicity, dose response, cytotoxicity control for Shn3 inhibitor project, CellTiter-Glo, cherry-picked (AID 624134); format: functional, cell-based
[5] = control 3'UTR Renilla luciferase suppression, dose response, counter-screen for Shn3 inhibitor project, cell-based, Clone20-Shn3RL, cherry-picked (AID 624133); format: functional
[6] = A549 cell cytotoxicity, dose response, cytotoxicity control, plate reader, cherry-pick, antagonist series (AID 743412); format: functional, cell-based
[7] = HepG2 cell cytotoxicity, dose response, cytotoxicity control, plate reader, cherry-pick, antagonist series (AID 743416); format: functional, cell-based
[8] = LGR2 antagonists, dose response, cell-based, HEK293, CRE-luciferase reporter, cherry pick, set 2 (AID 743343); format: functional;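 note: transfected cells were stimulated with diluted bursicon conditioned medium after compound addition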
[9] = MC4R antagonists, dose response, counter-screen for LGR2 antagonist project, cell-based, plate reader, cherry pick (AID 743444); format: functional;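 note: transfected HEK 293 cells stimulated with alpha-MSH peptide; potency of inhibitors of the alpha-MSH evoked signal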
[10] = HEK293 cell cytotoxicity, dose response, cytotoxicity control, plate reader, cherry-picked samples (AID 743446); format: functional, cell-based
[11] = inhibitors of Vif binding to APOBEC3G peptide, primary screen, biochemical, TR-FRET, GST-Vif 1-94, biotin-A3G peptide, dose response retest (AID 1117319); format: functional;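 note: TR-FRET signal of purified GST-Vif binding a biotinylated A3G peptide; inhibitors lower the FRET signal by blocking Vif and A3G binding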
Aminopeptidase N = molecular target: T1, Aminopeptidase N (Plasmodium falciparum FcB1/Columbia, UniProt O96935); test: P. falciparum M1AAP inhibitors, biochemical, fluorogenic H-Leu-NHMec substrate, 1536-well (AID 1445); set-up: species or system Plasmodium falciparum 3D7, 3D7
T1 sequence (O96935 whole entry): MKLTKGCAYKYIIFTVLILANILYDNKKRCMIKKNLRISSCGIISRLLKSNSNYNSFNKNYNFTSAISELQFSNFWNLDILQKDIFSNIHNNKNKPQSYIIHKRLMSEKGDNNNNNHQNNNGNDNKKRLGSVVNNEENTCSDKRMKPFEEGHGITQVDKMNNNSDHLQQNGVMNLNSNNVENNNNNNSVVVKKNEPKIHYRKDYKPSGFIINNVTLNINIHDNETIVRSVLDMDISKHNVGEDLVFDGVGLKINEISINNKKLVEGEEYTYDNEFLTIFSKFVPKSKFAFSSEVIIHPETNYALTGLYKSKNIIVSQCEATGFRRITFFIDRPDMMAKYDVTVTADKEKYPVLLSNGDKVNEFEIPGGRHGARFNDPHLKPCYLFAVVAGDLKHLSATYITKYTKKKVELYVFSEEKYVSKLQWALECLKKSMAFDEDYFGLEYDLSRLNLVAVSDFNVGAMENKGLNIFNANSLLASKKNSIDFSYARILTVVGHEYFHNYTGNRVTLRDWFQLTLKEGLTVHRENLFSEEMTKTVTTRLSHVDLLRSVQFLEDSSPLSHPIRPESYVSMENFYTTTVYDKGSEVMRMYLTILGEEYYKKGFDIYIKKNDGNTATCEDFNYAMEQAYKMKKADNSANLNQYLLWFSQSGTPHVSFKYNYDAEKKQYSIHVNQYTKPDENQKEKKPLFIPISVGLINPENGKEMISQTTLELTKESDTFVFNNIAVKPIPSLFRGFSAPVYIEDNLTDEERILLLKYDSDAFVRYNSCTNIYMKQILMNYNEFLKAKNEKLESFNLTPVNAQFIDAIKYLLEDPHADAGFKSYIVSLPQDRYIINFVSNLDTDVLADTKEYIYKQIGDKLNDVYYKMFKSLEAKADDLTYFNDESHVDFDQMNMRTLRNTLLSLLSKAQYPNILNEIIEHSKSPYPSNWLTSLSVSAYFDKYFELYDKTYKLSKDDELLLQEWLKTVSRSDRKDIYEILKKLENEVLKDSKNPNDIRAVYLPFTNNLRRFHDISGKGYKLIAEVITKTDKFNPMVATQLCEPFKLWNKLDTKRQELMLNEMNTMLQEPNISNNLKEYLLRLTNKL

[12] = molecular target: FAD-linked sulfhydryl oxidase ALR (Homo sapiens, UniProt P55789); test: inhibitors of human ALR sulfhydryl oxidase, dose response, biochemical, H2O2 detection, luminescence, cherry-pick (AID 493248)
Chain of FAD-linked sulfhydryl oxidase ALR (P55789 whole entry): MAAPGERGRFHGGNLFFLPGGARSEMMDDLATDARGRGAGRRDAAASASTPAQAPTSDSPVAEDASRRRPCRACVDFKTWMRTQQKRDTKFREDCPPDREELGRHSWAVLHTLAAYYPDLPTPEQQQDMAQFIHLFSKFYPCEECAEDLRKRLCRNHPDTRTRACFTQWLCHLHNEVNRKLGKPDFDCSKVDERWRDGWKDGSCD

[13] = molecular target: T2, RNA-editing ligase 1, mitochondrial (Trypanosoma brucei brucei, UniProt P86926); test: TbREL1 ligase inhibitors, dose response, biochemical, fluorescence, Trypanosoma brucei (AID 1117295); format: functional
T2 sequence (P86926 whole entry): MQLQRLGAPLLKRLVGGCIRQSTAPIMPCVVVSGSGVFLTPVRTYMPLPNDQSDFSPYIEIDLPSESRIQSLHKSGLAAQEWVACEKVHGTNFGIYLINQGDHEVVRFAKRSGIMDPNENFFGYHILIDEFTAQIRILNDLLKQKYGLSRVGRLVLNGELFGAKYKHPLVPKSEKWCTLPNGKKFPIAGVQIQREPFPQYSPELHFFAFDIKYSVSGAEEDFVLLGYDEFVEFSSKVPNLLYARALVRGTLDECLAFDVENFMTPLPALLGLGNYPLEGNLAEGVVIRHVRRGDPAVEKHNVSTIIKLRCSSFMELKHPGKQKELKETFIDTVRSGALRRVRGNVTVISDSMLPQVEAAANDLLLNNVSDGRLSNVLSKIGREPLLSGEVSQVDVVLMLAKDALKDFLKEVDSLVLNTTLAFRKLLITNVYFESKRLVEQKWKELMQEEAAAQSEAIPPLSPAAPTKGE

BJ [14] = test: cytotoxicity toward BJ-TERT fibroblasts, dose response, cell-based, RAS-independent, luminescence (AID 1933); format: functional; conditions: Homo sapiens
BJ [15] = test: cells; format: functional, cell-based; conditions: Homo sapiens
[16] = inhibitors of intracellular T. cruzi replication, confirmation, NIH3T3 host cells, beta-gal luminescence (AID 2044); format: functional, cell-based;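 note: intracellular parasites grown in NIH/3T3 mouse fibroblasts as host cells; luminescent beta-galactosidase reporter signal from transgenic T. cruzi replicating inside host cells; inhibitors lower the luminescence signal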
[17] = cytotoxicity toward NIH3T3 fibroblasts, dose response, counter-screen, cell-based, ATP luminescence, mouse fibroblasts (AID 2010); format: functional;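 note: cells exposed to compound for about 90 hours before reading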
BJ [18] = test: cytotoxicity toward BJ-TERT-LT-ST fibroblasts, dose response, cell-based, RAS-independent, luminescence (AID 1935); format: functional; conditions: Homo sapiens;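 note: BJ fibroblasts immortalized with TERT plus LT and ST oncogenes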
[19] = cytotoxicity toward DRD oncogenic fibroblasts, dose response, cell-based, non-viral oncogenic, luminescence (AID 1934); format: functional; conditions: Homo sapiens
INS1 = test: beta cell apoptosis inhibitors, cytokine rescue, dose response, luminescence, retest (AID 449756); format: functional, cell-based; conditions: Rattus norvegicus;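 note: cell death triggered by IL-1 beta plus TNF-alpha plus IFN-gamma mixture; protective hits raise ATP signal compared with cytokine alone wells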
Galanin receptor type 3 = molecular target: T3, Galanin receptor type 3 (Homo sapiens, UniProt O60755); test: Fluorescence-based cell-based primary high throughput dose response assay to identify antagonists of the Galanin Receptor 3 (GalR3).; format: functional
T3 sequence (O60755 whole entry): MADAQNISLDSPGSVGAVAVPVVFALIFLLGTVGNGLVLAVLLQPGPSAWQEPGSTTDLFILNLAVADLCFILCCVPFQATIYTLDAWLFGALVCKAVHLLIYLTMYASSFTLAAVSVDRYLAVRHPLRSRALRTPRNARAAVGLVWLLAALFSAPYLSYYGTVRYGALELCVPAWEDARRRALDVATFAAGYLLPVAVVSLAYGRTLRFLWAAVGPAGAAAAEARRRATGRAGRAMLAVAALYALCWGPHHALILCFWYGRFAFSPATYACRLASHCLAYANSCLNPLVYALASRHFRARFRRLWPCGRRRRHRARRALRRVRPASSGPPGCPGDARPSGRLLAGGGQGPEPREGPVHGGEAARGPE

cells = format: functional, cell-based; conditions: HEK-CNG
[20] = molecular target: T4, COUP transcription factor 2 (Homo sapiens, UniProt P24468); test: Luminescence-based cell-based high throughput dose response assay to identify inhibitors of COUP-TFII (NR2F2).; format: functional;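 note: HEK293 cells transiently cotransfected with COUP-TFII expression vector and reporter; luciferase reporter luminescence driven by COUP-TFII from the pX2-168 reporter plasmid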
T4 sequence (P24468 whole entry): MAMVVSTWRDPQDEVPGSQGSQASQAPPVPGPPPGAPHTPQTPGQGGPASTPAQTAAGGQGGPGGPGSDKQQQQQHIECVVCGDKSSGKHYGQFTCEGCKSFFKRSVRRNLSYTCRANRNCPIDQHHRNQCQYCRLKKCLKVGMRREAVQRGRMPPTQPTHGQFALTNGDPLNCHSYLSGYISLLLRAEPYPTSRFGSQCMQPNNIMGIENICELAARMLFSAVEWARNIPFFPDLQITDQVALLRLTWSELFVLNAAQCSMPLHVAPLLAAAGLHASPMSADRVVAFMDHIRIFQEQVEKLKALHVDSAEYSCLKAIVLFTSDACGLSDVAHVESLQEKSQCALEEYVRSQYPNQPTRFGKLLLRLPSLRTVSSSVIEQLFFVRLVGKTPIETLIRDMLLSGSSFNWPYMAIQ

[21] = cytotoxicity in HEK-293T cells, dose response, cytotoxicity control for TCR NF-kB inhibitor project, luminescence, T-cell screen hits (AID 489026); format: functional, cell-based;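 note: cells exposed to compound about 14 hours before the viability readout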

Chain of Ras and Rab interactor 1/Tyrosine-protein kinase ABL1 (P00519 whole entry): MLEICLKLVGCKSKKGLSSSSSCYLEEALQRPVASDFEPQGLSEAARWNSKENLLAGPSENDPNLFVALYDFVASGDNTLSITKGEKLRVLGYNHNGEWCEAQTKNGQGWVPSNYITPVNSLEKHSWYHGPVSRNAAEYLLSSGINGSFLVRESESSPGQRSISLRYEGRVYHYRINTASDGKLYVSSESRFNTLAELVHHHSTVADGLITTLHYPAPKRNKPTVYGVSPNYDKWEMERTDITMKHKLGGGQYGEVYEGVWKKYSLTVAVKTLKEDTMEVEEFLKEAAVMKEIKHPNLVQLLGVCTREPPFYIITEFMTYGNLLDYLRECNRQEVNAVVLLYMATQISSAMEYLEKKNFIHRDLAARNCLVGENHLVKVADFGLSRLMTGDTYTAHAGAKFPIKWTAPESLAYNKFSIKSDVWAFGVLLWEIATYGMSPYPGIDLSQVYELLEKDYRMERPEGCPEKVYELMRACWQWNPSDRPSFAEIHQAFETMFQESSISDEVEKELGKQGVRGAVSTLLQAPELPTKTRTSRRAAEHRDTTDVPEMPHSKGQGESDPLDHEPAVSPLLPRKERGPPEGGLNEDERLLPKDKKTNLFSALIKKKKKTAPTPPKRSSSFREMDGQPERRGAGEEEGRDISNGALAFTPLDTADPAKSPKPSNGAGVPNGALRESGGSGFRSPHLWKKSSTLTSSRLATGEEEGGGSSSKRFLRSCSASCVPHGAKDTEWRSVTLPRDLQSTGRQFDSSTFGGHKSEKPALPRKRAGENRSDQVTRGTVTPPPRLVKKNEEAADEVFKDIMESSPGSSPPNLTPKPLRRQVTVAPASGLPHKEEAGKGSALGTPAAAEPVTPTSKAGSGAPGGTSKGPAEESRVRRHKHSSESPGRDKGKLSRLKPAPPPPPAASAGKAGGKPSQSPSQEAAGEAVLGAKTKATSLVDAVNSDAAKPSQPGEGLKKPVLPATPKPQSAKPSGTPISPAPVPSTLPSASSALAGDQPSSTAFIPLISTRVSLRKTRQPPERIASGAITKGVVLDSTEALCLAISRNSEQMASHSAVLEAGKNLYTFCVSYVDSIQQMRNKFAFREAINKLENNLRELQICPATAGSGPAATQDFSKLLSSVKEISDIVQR
Chain of Ras and Rab interactor 1/Tyrosine-protein kinase ABL1 (Q13671 whole entry): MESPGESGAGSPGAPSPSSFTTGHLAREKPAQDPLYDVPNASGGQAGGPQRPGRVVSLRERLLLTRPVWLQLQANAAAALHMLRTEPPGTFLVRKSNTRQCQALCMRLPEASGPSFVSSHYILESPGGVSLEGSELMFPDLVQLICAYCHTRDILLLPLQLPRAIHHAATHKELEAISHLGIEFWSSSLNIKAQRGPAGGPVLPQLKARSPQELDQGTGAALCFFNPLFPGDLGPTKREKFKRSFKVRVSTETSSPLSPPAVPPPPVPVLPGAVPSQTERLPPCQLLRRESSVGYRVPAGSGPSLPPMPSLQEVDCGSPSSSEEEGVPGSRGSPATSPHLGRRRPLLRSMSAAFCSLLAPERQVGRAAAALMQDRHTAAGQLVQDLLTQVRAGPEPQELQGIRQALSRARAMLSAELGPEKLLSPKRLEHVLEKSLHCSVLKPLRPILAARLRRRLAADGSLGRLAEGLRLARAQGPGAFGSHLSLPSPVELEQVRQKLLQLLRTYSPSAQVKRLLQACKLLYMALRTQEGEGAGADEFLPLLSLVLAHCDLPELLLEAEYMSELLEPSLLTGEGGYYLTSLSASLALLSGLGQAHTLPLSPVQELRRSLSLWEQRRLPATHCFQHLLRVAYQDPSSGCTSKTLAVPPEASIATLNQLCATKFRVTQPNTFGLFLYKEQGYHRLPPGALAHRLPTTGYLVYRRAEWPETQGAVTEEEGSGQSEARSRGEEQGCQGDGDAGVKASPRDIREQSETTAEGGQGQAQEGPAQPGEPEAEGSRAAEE

SMILES: OCC1OC(n2cnc3c(NCc4ccccc4O)ncnc32)C(O)C1O (stereo not given)
- IC50 [1]: > 24.5 µM (inactive)
- AC50 (Paired box protein Pax-8): 0.759 µM (active)
- AC50 [2]: 4.79 µM (active)

SMILES: CCCCNc1c(-c2ccc(OC)c(SC3CCCCC3)c2)nc2ccc(C)cn12
- AC50 [3]: 3.68 µM (active)
- AC50 [4]: 45 µM (active)
- AC50 [5]: 2.14 µM (active)
- AC50 [6]: 22.1 µM (active)
- AC50 [7]: 18.4 µM (active)
- AC50 [8]: 7.85 µM (active)
- AC50 [9]: 9.94 µM (active)
- AC50 [10]: 15.5 µM (active)

SMILES: Cc1cc(C)nc(N2CCC(C(=O)O)CC2)n1
- IC50 [11]: > 100 µM (active)

SMILES: Nc1ccc(-c2nc3ccc(N)cc3[nH]2)cc1
- IC50 (Aminopeptidase N): 49.9 µM (active)
- AC50 [12]: 2.55 µM (active)
- IC50 [13]: 46.1 µM (inactive)

SMILES: O=C(NC(Nc1nc2ccc([N+](=O)[O-])cc2s1)(C(F)(F)F)C(F)(F)F)c1cccnc1
- EC50 (BJ [14]): 8.85 µM (inconclusive)
- EC50 (BJ [15]): 4.98 µM (active)
- EC50 [16]: 1.38 µM (active)
- EC50 [17]: < 6 µM (inconclusive)
- EC50 (BJ [18]): 11.4 µM (active)
- EC50 [19]: 10.4 µM (active)
- AC50 (INS1): 2.6 µM (active)
- IC50 (Galanin receptor type 3): > 1.11 µM (active)
- EC50 (cells): > 29.9 µM (inactive)
- AC50 (Paired box protein Pax-8): 1.86 µM (active)
- IC50 [20]: 8.8 µM (active)

SMILES: Cc1oc(-c2ccc(Cl)cc2)nc1C[S+]([O-])CC(=O)NCCCN1CCN(Cc2ccccc2)CC1 (stereo not given)
- IC50 [21]: > 80 µM (inactive)
- AC50 [3]: 2.52 µM (active)
- AC50 [4]: 1.69 µM (active)
- AC50 [5]: 4.29 µM (active)
- IC50 (Galanin receptor type 3): 2.03 µM (active)
- EC50 (cells): > 29.9 µM (inactive)
- IC50 [20]: 4.34 µM (active)

SMILES: O=C(Nc1ccc(N2CCN(C(=O)c3ccc(Cl)cc3)CC2)cc1)c1cc2ccccc2o1
- AC50 [8]: 29.4 µM (active)
- AC50 [9]: 28.6 µM (active)
